Results taken from US10154988B2, “Methods and compositions for treating schizophrenia” (The Johns Hopkins University, priority 2012, dated 2018).
“Also recorded” adds a separate entry of the source.

How the values were obtained:
[1] = system: Age-Impaired (AI) Long-Evans rats; experiment: Morris Water Maze retention trial, levetiracetam in aged-impaired rats; type: in vivo, rat
Method: The MWM apparatus consists of a large, circular pool (diameter 1.83 m; height, 0.58 m) filled with water (27° C.) that is made opaque through the addition of non-toxic pigment or some other substance. In the typical “hidden platform” version of the test, rats are trained to find a camouflaged white escape platform (height, 34.5 cm) that is positioned in the center of one quadrant of the maze about 1.0 cm below the water surface. This platform can be retracted to the bottom of the tank or raised to its normal position from outside the maze during behavioral testing. The location of the platform remains constant from trial to trial. Because there are no local cues that mark the position of the platform, the rat's ability to locate it efficiently from any starting position at the perimeter of the pool depends on using information surrounding the maze. The maze is surrounded by black curtains to which white patterns are affixed to provide a configuration of spatial cues. A second platform (height 37.5 cm), with its surface painted black is elevated 2 cm above the water surface during cue training to control for factors unrelated to cognition. The behavior of a rat in the pool is recorded by a camera that is suspended 2.5 m above the center of the pool. The camera is connected to a video tracking system (HVS Image Advanced Tracker VP200) and a PC computer running HVS software developed by Richard Baker of HVS Image, Hampton, UK. The MWM protocol is optimized for sensitivity to the effects of aging on cognition and for measures of reliable individual differences within the aged population of out-bred Long-Evans rats (Gallagher et al. Behav. Neurosci. 107:618-626, (1993)). Rats receive three trials per day for 8 consecutive days, using a 60 sec inter-trial interval. On each training trial, the rat is released into the maze from one of four equally spaced starting positions around the perimeter of the pool. The starting position varies from trial to trial, thus preventing the use of a response strategy (e.g., always turning left from the start location to locate the escape platform). […] Every sixth trial consists of a probe trial to assess the development of spatial bias in the maze. During these trials, the rat swims with the platform being refracted to the bottom of the pool for 30 sec, at which time the platform is raised to its normal position for completion of the escape trial. At the completion of the protocol using the hidden platform, rats are assessed for cue learning using the visible platform. The location of this platform varies from trial to trial in a single session of 6 training trials. […]

[2] = system: DG/CA3 region of aMCI subjects; experiment: fMRI activity in DG/CA3 during lure stimuli correctly identified as similar; type: in vivo, human
Method: A within-subjects trial of 8 weeks duration, involving 17 amnestic MCI (aMCI) subjects and 17 age-matched controls with a low dose treatment of levetiracetam is conducted. […] Cognitive testing and fMRI imaging data are obtained from the subjects after each two week period of drug/placebo treatment. […] The […]

[3] = 10 mg/kg/day i.p., retention trial

## CC[C@@H](C(N)=O)N1CCCC1=O [levetiracetam, (2S)-2-(2-oxopyrrolidin-1-yl) butanamide]
[1]; 5 mg/kg/day i.p., retention trial
  performance (time in target quadrant) versus vehicle: does not significantly improve
[1]; [3]
  memory as compared to vehicle-treated controls: significantly improved memory
  time spent in the target annulus: effectiveness of the 10 mg/kg/day levetiracetam treatment is also seen
[1]; 10 mg/kg/day i.p., retention trial 24 h after two training days, vehicle approximately 25%
  time spent in the target quadrant, percentage of total swimming time: approximately 35%
[2]; 125 mg twice a day for two weeks vs placebo, p=0.037
  DG/CA3 hyperactivity (fMRI mean activity): reduces DG/CA3 hyper-activity
[2]; 250 mg BID for two weeks vs placebo, N=17
  DG/CA3 hyperactivity (fMRI mean activity): does not significantly reduce; also recorded: No such improvement is observed
